According to patent US9777015B2, “Useful thiophene derivatives in the treatment of diabetes” (METABRAIN RESEARCH, priority 2012, dated 2017):
Read-outs that look alike come from different tables or passages of the source.

How the values were obtained:
[1] = test system: isolated perfused pancreases of N0STZ diabetic rats; test: Insulin secretion in response to glucose at isolated perfused pancreases of N0STZ diabetic rats; set-up: species or system rat; details: for restoring insulin secretion in response to glucose: isolated perfused pancreases of N0STZ diabetic rats; for Insulin secretion peak at G16.5 mM, Tested product: tested concentration 10 μM, glucose 16.5 mM, average +/- SEM
Procedure: The pancreas was taken on rats made to be diabetic by injection of Streptozotocin on the day of birth and anesthetized with Pentobarbital (Nembutal©: 45 mg/kg; intraperitoneal route). These rats have a specific deficiency of the insulin response to glucose, as observed in humans with diabetes of type II. The isolation and the perfusion of the pancreas were achieved according to a modification of the procedure described by Sussman et al.. The effect of the compounds or reference substances is tested for 35 minutes (from t=20 min to t=55 min) in Krebs buffer in the absence (GO) or in the presence of glucose at 2.8 mM (G2.8 mM), and then 20 minutes (from t=55 min to t=75 min) in the presence of glucose 16.5 mM. The concentration of insulin secreted into the medium is measured by an Elisa assay (ELISA Alpco Cat no. 80-INSRTH-E10). The results are expressed as an average+/−SEM (Standard Error of the Mean) of several experiments.

[2] = test system: hepatocytes isolated from Wistar rat liver; test: Test of inhibition of hepatic production of glucose (isolated hepatocytes, 3 h or 20 h incubation); assay type: cell-based; details: for activity at 50 µM / activity at 100 µM: Rattus norvegicus, Hepatocyte; for activity at 50 µM: read-out: HGP % of ctrl @ 50 μM; for activity at 100 µM: read-out: HGP % of ctrl @ 100 μM
Outline: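 Hepatocytes from 24 h-fasted Wistar rats were cultured overnight in glucose-free RPMI with hydrocortisone (7.10^−5M). Glucose production was run for 3 h in Krebs with lactate/pyruvate plus compounds (0.1% DMSO final), or after an added 20 h pretreatment during the RPMI culture. Supernatant glucose was measured by glucose oxidase and expressed per mg protein (Lowry).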

GK (Goto-Kakisaki) rats = test: Antidiabetic activity in GK (Goto-Kakisaki) rats, intravenous glucose tolerance test (IVGTT); assay type: in vivo, rat; details: single oral dose 20 mg/kg
Procedure: The antidiabetic activity of compound 10 was evaluated in GK rats, a non-obese model of diabetes of type II. This model was obtained by cross-breeding of Wistar rats selected on the basis of a slight intolerance to glucose. These rats have the majority of dysfunctions observed in diabetes of type II in humans: hyperglycemia, intolerance to glucose, insulin-resistance, and deteriorated insulin response to glucose. These animals were bred at Metabrain and were housed in an animal housing facility with a regulated temperature (22±2° C.) under constant humidity (50±20%) with a day/night cycle of 12 h (light from 7 h-19 h) and have access ad libitum to food and drink. The housing and experimentation conditions comply with the European directives relating to health and ethical treatment of laboratory animals (ETS123). In this study, the rats used are female 16-week old GK rats having fasted for 2 hours before beginning the study (postabsorptive condition). A glucose tolerance test is carried out via an intravenous route (IVGTT) on 2 groups of rats: One group treated with the compound 10 orally at the single dose of 20 mg/kg and a control group treated orally with the carrier. The tolerance test is carried out 1 h after oral administration of compound 10 on the animals anesthetized beforehand with pentobarbital (45 mg/kg via an intraperitoneal route). A blood sample was taken at TO just before administration of the glucose load (0.5 g/kg via an intravenous route) and at x T5, T10, T15, T20 and T30 min after the glucose load. The blood samples are centrifuged in order to collect the plasma for determining glycemia. The results shown above are expressed • as a percentage of the decrease of glycemia at TO for the group treated with the compound 10, compared with the control group. • as a percentage of the decrease of AUC (area under the curve of glycemia versus time) for the group treated with the compound 10 as compared with the control group.

INS-1 cells = test: Stimulation test of insulin secretion by INS-1 cells; assay type: cell-based; details: Rattus norvegicus, 1 h incubation, 3.5 mM glucose; for activity at 10 µM: INS1, compound at 10 μM, read-out: INS-1 % of ctrl @ 10 μM; for activity at 50 µM: INS1, compound at 50 μM, read-out: INS-1 % of ctrl @ 50 μM
Procedure: The different compounds were tested on an INS-1 beta-pancreatic line in order to evaluate their capability of potentializing the insulin secretion in response to glucose. Very briefly, the cells are cultivated in a culture medium, RPMI 1640 with 10 mM glucose containing 1 mM of sodium pyruvate, 50 μM of 2-mercaptoethanol, 2 mM of glutamine, 10 mM of HEPES, 100 IU/mL of penicillin, 100 μg/mL of streptomycin and 10% of inactivated fetal calf serum, as described by Asfari et al.. For the insulin secretion test, the INS-1 cells are sown and cultivated in 96-well plates. After 3 days of cultivation at 37° C. in a humid atmosphere (95% air/5% CO2), the medium is removed and the cells are incubated for 16 h in a medium containing 5 mM of glucose and 1% of inactivated fetal calf serum. On the day of the test, the cells are washed with a Krebs buffer (pH 7.4) containing 0.1% of bovine albumin and then pre-incubated for 30 min at 37° C. in this same buffer containing 2.8 mM of glucose. Finally, the cells are again washed with Krebs buffer and then incubated for 1 h in the buffer of the secretion test (Krebs, pH 7.4 containing 0.1% of bovine albumin and 3.5 mM of glucose and molecules to be evaluated). At the end of the test, the cell supernatant is recovered in order to measure therein the secreted insulin, by means of an ELISA kit using a rat anti-insulin antibody (ELISA Alpco Cat no. 80-INSRTH-E10). Each condition is tested in triplicate. The 3.5 mM glucose, the 10^−7M GLP-1 and the Forskoline 10^−7/IBMX 10^−5M mixtures are used as positive controls of the test. A compound stimulates the secretion of insulin if this factor is greater than or equal to 130% of the control for a given glucose dose.

[3] = 3 h, hepatic glucose production, rat hepatocytes, 3 h incubation, compound at 50 μM
[4] = 3 h, hepatic glucose production, rat hepatocytes, 3 h incubation, compound at 100 μM
[5] = 20 h incubation, with two doses
[6] = 20 h, hepatic glucose production, rat hepatocytes, 20 h incubation, compound at 50 μM
[7] = 20 h, hepatic glucose production, rat hepatocytes, 20 h incubation, compound at 100 μM

SMILES | activity at 50 µM [2, 3] [%] | activity at 100 µM [2, 4] [%] | activity at 10 µM (INS-1 cells) [%] | activity at 50 µM (INS-1 cells) [%] | activity at 50 µM [2, 6] [%] | activity at 100 µM [2, 7] [%] | other results
CCOC(=O)Cc1cc(C(=O)c2ccco2)sc1-c1ccc(Cl)cc1 [compound 10, ethyl 2-(2-(4-chlorophenyl)-5-(furan-2-carbonyl)thiophen-3-yl)acetate] | 64 | 39 | 144 | 210 |  |  | restoring insulin secretion in response to glucose [1]: strongest secretions; intolerance to glucose (GK (Goto-Kakisaki) rats; GK rats, IVGTT 1 h after administration): capable of reducing; basal hyperglycemia (GK (Goto-Kakisaki) rats; GK rats, glycemia at T0): capable of reducing; AUC, % of activity (GK (Goto-Kakisaki) rats; female GK rats, IVGTT, vs control group treated with carrier): −35%; Glycemia at T0, % of activity (GK (Goto-Kakisaki) rats; female GK rats, vs control group treated with carrier): −11%
CCOC(=O)Cc1cc(C(=O)c2ccc(OC)cc2)sc1-c1ccc(Cl)cc1 [compound 13, ethyl 2-(2-(4-chlorophenyl)-5-(4-methoxybenzoyl)thiophen-3-yl)acetate] | 84 | 69 | 155 |  | 58 | 35 | restoring insulin secretion in response to glucose [1]: strongest secretions; Insulin secretion peak at G16.5 mM, Tested product [1]: 1 489 μU/min.; inhibition of hepatic production of glucose [2, 5]: strongest inhibitions
O=C(O)Cc1cc(C(=O)c2ccco2)sc1-c1ccc(Cl)cc1 [compound 56, 2-(2-(4-chlorophenyl)-5-(furan-2-carbonyl)thiophen-3-yl)acetic acid] |  |  |  |  |  |  | Insulin secretion peak at G16.5 mM, Tested product [1]: 845 ± 133 μU/min.; HGP % of ctrl @ 50 μM ([2]; hepatic glucose production, rat hepatocytes, 3 h incubation, compound at 50 μM): 94 % of ctrl; HGP % of ctrl @ 100 μM ([2]; hepatic glucose production, rat hepatocytes, 3 h incubation, compound at 100 μM): 70 % of ctrl
CCOC(=O)Cc1cc(C(=O)c2ccc(Cl)o2)sc1-c1ccc(Cl)cc1 [compound 176, ethyl 2-[5-(5-chlorofuran-2-carbonyl)-2-(4-chlorophenyl)-3-thienyl]acetate] | 76 | 36 | 144 | 246 |  |  | 
CC(C)OC(=O)Cc1cc(C(=O)c2ccco2)sc1-c1ccc(Cl)cc1 [compound 44, isopropyl 2-(2-(4-chlorophenyl)-5-(furan-2-carbonyl)thiophen-3-yl)acetate] | 83 | 69 | 180 | 223 | 71 | 61 | 
CCOC(=O)Cc1cc(C(=O)c2ccc(Cl)cc2OC)sc1-c1ccc(Cl)cc1 [compound 155, ethyl 2-[5-(4-chloro-2-methoxy-benzoyl)-2-(4-chlorophenyl)-3-thienyl]acetate] | 65 | 54 |  | 143 |  |  | 
CC(C)OC(=O)Cc1cc(C(=O)c2ccco2)sc1-c1ccc(Cl)cc1F [compound 143, isopropyl 2-(2-(4-chloro-2-fluorophenyl)-5-(furan-2-carbonyl)thiophen-3-yl)acetate] | 89 | 72 | 127 | 233 |  |  | 
COC(=O)Cc1cc(C(=O)c2ccccn2)sc1-c1ccc(Cl)cc1 [compound 148] | 80 | 49 | 134 | 189 |  |  | 
CCOC(=O)C(COC)c1cc(C(=O)c2ccc(OC)cc2)sc1-c1ccc(Cl)cc1 (stereo not shown) [compound 124, ethyl 2-(2-(4-chlorophenyl)-5-(4-methoxybenzoyl)thiophen-3-yl)-3-methoxypropanoate] |  |  | 177 | 169 | 92 | 60 | restoring insulin secretion in response to glucose [1]: strongest secretions
CCOC(=O)Cc1cc(C(=O)c2ccc(OC)cc2)sc1-c1ccc(Cl)c(Cl)c1 [compound 157, ethyl 2-[2-(3,4-dichlorophenyl)-5-(4-methoxybenzoyl)-3-thienyl]acetate] | 97 | 74 |  | 140 |  |  | Insulin secretion peak at G16.5 mM, Tested product [1]: 989 ± 86 μU/min.
COC(=O)Cc1cc(C(=O)c2ccco2)sc1-c1ccccc1 [compound 3, methyl 2-(5-(furan-2-carbonyl)-2-phenylthiophen-3-yl)acetate] | 82 | 74 | 152 | 318 |  |  | 
CCON=C(c1ccc(OC)cc1)c1cc(CC(=O)O)c(-c2ccc(Cl)cc2)s1 [compound 108, 2-(2-(4-chlorophenyl)-5-((ethoxyimino)(4-methoxyphenyl)methyl)thiophen-3-yl)acetic acid] | 88 | 26 | 135 |  |  |  | 
CCOC(=O)Cc1cc(C(=O)c2ccco2)sc1-c1cccc(F)c1F [compound 130, ethyl 2-(2-(2,3-difluorophenyl)-5-(furan-2-carbonyl)thiophen-3-yl)acetate] |  |  | 179 | 323 | 53 | 40 | inhibition of hepatic production of glucose [2, 5]: strongest inhibitions
CCOC(=O)Cc1cc(C(=O)c2ccccc2)sc1-c1ccc(OC)cc1 [compound 35, ethyl 2-(5-benzoyl-2-(4-methoxy-phenyl)thiophen-3-yl)acetate] |  |  | 128 | 148 | 100 | 70 | 
CCOC(=O)Cc1cc(C(=O)c2ccco2)sc1-c1ccc(Cl)c(Cl)c1 [compound 158, ethyl 2-[2-(3,4-dichlorophenyl)-5-(furan-2-carbonyl)-3-thienyl]acetate] | 59 |  | 132 | 201 |  |  | inhibition of hepatic production of glucose ([2]; 3 h incubation, at the dose of 50 μM): strongest inhibitions
